Reference: EP2329817A1, “Retinoic acid receptor antagonists, miR-10a inhibitors and inhibitors of HOXB1 or HOXB3 repressors for treating pancreatic cancer” (Ernst-Moritz-Arndt-Universität Greifswald, priority 2009, dated 2011)

What was measured:
[1] = tested on: xenotransplanted primary human tumours; assay: Zebrafish embryo xenotransplantation of pretreated fragments of resected primary human tumours; assay type: in vivo; conditions: for Migration <5 / Migration 5 to 20 / Migration >20 / total >5 / total >5, final line, number: number of embryos; for total >5, final line, per cent / total >5, final line, number: whole experiment; for presence of micro-metastases at 3dpl, Migration 5 to 20: number in square brackets
Method: Zebrafish (Danio rerio) (Tuebingen line, AIB strain (Albinos) and Tg (fli1:eGFP) were handled in compliance with local animal care regulations and standard protocols of the Netherlands and Germany. Fish were kept at 28°C in aquaria with day/night light cycles (10 h dark versus 14 h light periods). The developing embryos were kept in an incubator at constant temperatures.
Cells were stained with CM-Dil (red fluorescence) at a 1:1000 dilution according to the manufacturers protocol (Vybrant, Invitrogen). Cells were suspended in 67% DPBS for injection into embryos. 2dpf zebrafish embryos were dechorionated and tranquilized with tricaine (Sigma). An injection needle (15µm diameter) with a manual injector (Eppendorf; Celltram Vario) was used to inject ∼200 cells into the yolk sac of 2dpf zebrafish embryos. On average 80 embryos were injected for each treatment and embryos with detectable cell scatter 2 h after the transfer (and therefore presumably due to the transfer procedure) were excluded from further analysis. Presence of cells was checked after 2 h incubation at 31°C and embryos were subsequently kept at 35°C. We defined metastasis based on the number of fluorescent cells that were detected outside the yolk sac 2 days after the transfer. Presence of 5 or more cells was considered "metastasised" and percentages of metastasised fish in each experiment were counted. The occurence of micro-metastasis is indicated by cell clusters of ≥4 cells presumably originating from cell division. PaTu-S cells and ASPC1 cells were transfected ON with indicated concentrations of miR-10a siRNA in the presence of ICA-Fectin TM442 (Eurogentec, Belgium). Whole cell lysates were prepared 36h post-transfection and 40 µg of total lysates were separated on 7.5% PAA-gels and blotted with anti E-cadherin, α-catenin, β-catenin (all mAbs, Transduction Labs) and actin antibodies (mAb Sigma-Aldrich, Germany).
Human resection specimens were obtained at the Universitätsklinikum Greifswald according to local ethical guidelines and after obtaining informed patient consent. Tumour tissue was cut into small pieces using a scalpel blade. Tissue fragments were then washed with 67% DPBS and stained with 1:500 CM-Dil. Stained tissue fragments of approximal ^1/5 to ½ the size of the yolk sac were transferred with a glass transplantation needle into the yolk. After 2 h at 31 °C the embryos were checked that the yolk had sealed itself and the embryos were incubated at 35°C for the remainder of the experiment.
Small tissue fragments from two well differentiated ductal adenocarcinoma resection specimen of the Pancreas head (2 and 3) were incubated with miR-10a Morpholino or RARα inhibitor and, following staining with carbocyanine dye (CM-Dil), transplanted into zebrafish embryos (Controls: DMSO and control-Morpholino). Formation of micrometastases in the fish was assessed at 3 dpi by analysis of present cell aggregates (including daughter cells) outside the yolk sac. […] Tumour grading and classification was done according to histopathological examination.

PaTu-T cells [2] = assay: In vitro migration assay (scratch assay); assay type: cell-based, human; conditions: compared to DMSO control
Method: (§1) We used the selective RARα antagonist Ro-41-5253; to analyze its anti-migratory activity in an in vitro migration assay ("scratch assay") and in the zebrafish xenotransplantation model, respectively. […] Similar results were obtained when PaTu-T cells were treated with RAR -specific siRNAs (Supplemental Table 1 and Supplemental Fig. 1).
PaTu-T cells were incubated as indicated, with DMSO (Co), 200 nM Ro-41-5253 (RARα inh), control-Morpholino, miR-10a Morpholino, miR-196 siRNA (Co), or RARα siRNA and PaTu-S cells were co-incubated with 1 µM retinoic acid (RA) and control siRNA, RARα siRNA or Ro-415253 and miR-10a expression was evaluated by Northern blot analysis (A). […] RT-PCR control of GAPDH was used as a loading control (not shown). Dose response curves for RA and the RARα antagonist and the RT-PCR control for RARα siRNA treatment are shown in Supplemental Fig. 1. The effect of Ro-415253 on cell migration was analysed in an in vitro migration assay in PaTu-T cells. […] An actin re-blot confirmed equal loading.

PaTu-T cells [3] = assay: Cell survival and cell cycle distribution by propidium iodine staining (FACS); assay type: cell-based, human
Description: Targeting endogenous miR-10a with Morpholinos rendered PaTu-T-cells non-invasive and prevented metastatic behaviour in zebrafish embryos, whereas a control Morpholino had no such effect (Fig.4 B, Table1 and Supplemental Table 1). […] (analysed by propidium iodine (PI) staining, data not shown).
as §1
Supplemental Figure 3: Cell cycle analysis of RARα siRNA or Ro-415253 treated PaTu-T cells. Cells were treated with either DMSO control (A), RARα siRNA (B) or 200 nM Ro-415253 (C) and fixed after 24h with 70% EtOH. Following propidium iodine (PI) staining the cells were analysed by a LSR2 FACS sorter (Becton Dickinson). […] Gate P2 indicates cells in G0/1 phase, gate 3 represents cells in S phase and gate 4 represents Cells in M/G2 phase.

CCCCCCCOc1cc2c(cc1/C(C)=C/c1ccc(C(=O)O)cc1)C(C)(C)CCS2(=O)=O [Ro-41-5253, Benzoic acid, 4-(2-(7-(heptyloxy)-3,4-dihydro-4,4-dimethyl-2H-1-benzothiopyran-6-yl)-1-propenyl)-, S,S-dioxide, (E)]
Migration <5 ([1]; Patient 1 (adenocarcinoma of the ampulla vateri, G3), Day 1): 1
Migration 5 to 20 ([1]; Patient 1, Day 1): 2
Migration >20 ([1]; Patient 1, Day 1): 0
total >5 ([1]; Patient 1, Day 1): 2
Migration 5 to 20 ([1]; Patient 1, Day 2): 2
Migration <5 ([1]; Patient 1, Day 2): 0
Migration >20 ([1]; Patient 1, Day 2): 0
total >5 ([1]; Patient 1, Day 2): 2
Migration 5 to 20 ([1]; Patient 1, Day 3): 1
Migration <5 ([1]; Patient 1, Day 3): 0
Migration >20 ([1]; Patient 1, Day 3): 0
total >5 ([1]; Patient 1, Day 3): 2
total >5, final line, per cent ([1]; Patient 1): 3.1%
total >5, final line, number ([1]; Patient 1): 2
Migration <5 ([1]; Patient 2 (well-differentiated adenocarcinoma of the pancreas, G2), Day 1): 1
Migration 5 to 20 ([1]; Patient 2, Day 1): 3
Migration >20 ([1]; Patient 2, Day 1): 0
total >5 ([1]; Patient 2, Day 1): 3
Migration 5 to 20 ([1]; Patient 2, Day 2): 2
Migration <5 ([1]; Patient 2, Day 2): 1
Migration >20 ([1]; Patient 2, Day 2): 0
total >5 ([1]; Patient 2, Day 2): 2
Migration 5 to 20 ([1]; Patient 2, Day 3): 1
Migration <5 ([1]; Patient 2, Day 3): 0
Migration >20 ([1]; Patient 2, Day 3): 0
total >5 ([1]; Patient 2, Day 3): 1
total >5, final line, per cent ([1]; Patient 2): 4.3%
total >5, final line, number ([1]; Patient 2): 3
Migration <5 ([1]; Patient 3 (well-differentiated adenocarcinoma of the pancreas, G2), Day 1): 0
Migration 5 to 20 ([1]; Patient 3, Day 1): 3
Migration >20 ([1]; Patient 3, Day 1): 0
total >5 ([1]; Patient 3, Day 1): 3
Migration 5 to 20 ([1]; Patient 3, Day 2): 3
Migration <5 ([1]; Patient 3, Day 2): 0
Migration >20 ([1]; Patient 3, Day 2): 0
total >5 ([1]; Patient 3, Day 2): 3
Migration 5 to 20 ([1]; Patient 3, Day 3): 3
Migration <5 ([1]; Patient 3, Day 3): 0
Migration >20 ([1]; Patient 3, Day 3): 0
total >5 ([1]; Patient 3, Day 3): 3
total >5, final line, per cent ([1]; Patient 3): 4.5%
total >5, final line, number ([1]; Patient 3): 3
total >5 [%] ([1]; Table 2, Patient 1): 3.1%
presence of micro-metastases at 3dpl, Migration 5 to 20 ([1]; Table 2, Patient 1): 0
Migration 5 to 20 ([1]; Table 2, Patient 1): 2
Migration <5 ([1]; Table 2, Patient 1): 0
Migration >20 ([1]; Table 2, Patient 1): 0
total >5 [%] ([1]; Table 2, Patient 2): 4.3% 4.4x10^-5
presence of micro-metastases at 3dpl, Migration 5 to 20 ([1]; Table 2, Patient 2): 0
Migration 5 to 20 ([1]; Table 2, Patient 2): 3
Migration <5 ([1]; Table 2, Patient 2): 1
Migration >20 ([1]; Table 2, Patient 2): 0
total >5 [%] ([1]; Table 2, Patient 3): 4.5%
presence of micro-metastases at 3dpl, Migration 5 to 20 ([1]; Table 2, Patient 3): 0
Migration 5 to 20 ([1]; Table 2, Patient 3): 3
Migration <5 ([1]; Table 2, Patient 3): 0
Migration >20 ([1]; Table 2, Patient 3): 0
reduction of invasiveness and metastatic behaviour ([1]; compared to the DMSO treated control tissue of the same tumour specimen): > 95%
metastatic behavior of treated specimen ([1]; p< 0.001, student t-test): significant decrease
cell migration (PaTu-T cells [2]): significant inhibition
cell migration (PaTu-T cells [2]; listed as RARα antagonist): significantly decreased
cell cycle distribution (PaTu-T cells [3]; 24h, Ro-415253 at 200 nM, PI staining, FACS): No differences
general cell survival (PaTu-T cells [3]; propidium iodine (PI) staining): no adverse affects
